Legend:
Type in all cases: binding
Design in all cases: KINOMEscan: ABL1(F317L)-phosphorylated / KINOMEscan: ABL1(H396P)-nonphosphorylated / KINOMEscan: ABL1(H396P)-phosphorylated / KINOMEscan: ABL1(M351T)-phosphorylated / KINOMEscan: ABL1(T315I)-phosphorylated / KINOMEscan: ABL1-nonphosphorylated / KINOMEscan: ABL1-phosphorylated / KINOMEscan: ACVR2A / KINOMEscan: ACVR2B / KINOMEscan: ADCK3 / KINOMEscan: ADCK4 / KINOMEscan: AKT1 / KINOMEscan: AKT3 / KINOMEscan: ALK / KINOMEscan: ARK5 / KINOMEscan: AURKA / KINOMEscan: AURKC / KINOMEscan: BIKE / KINOMEscan: BMPR1A / KINOMEscan: BMPR1B / KINOMEscan: BMX / KINOMEscan: BRK / KINOMEscan: BRSK1 / KINOMEscan: BRSK2 / KINOMEscan: CAMK1 / KINOMEscan: CAMK1D / KINOMEscan: CAMK1G / KINOMEscan: CAMK2A / KINOMEscan: CAMK2B / KINOMEscan: AAK1 / KINOMEscan: CAMK2D / KINOMEscan: CAMK2G / KINOMEscan: ABL1(F317I)-nonphosphorylated / KINOMEscan: ABL1(F317I)-phosphorylated / KINOMEscan: ABL1(F317L)-nonphosphorylated: unit: % Ctrl
panel of 442 kinases [1] = molecular target: T1, panel of 442 kinases (Homo sapiens, UniProt P00519, Y253F); conditions: Compound Concentration 10 µM
T1 construct: purchased KINOMEscan
Description: (§1) We assessed the selectivity of members of this scaffold using the KINOMEscan methodology across a near comprehensive panel of 442 kinases [[18,27]].

panel of 442 kinases [2] = molecular target: T2, panel of 442 kinases (Homo sapiens, UniProt Q13705); conditions: Compound Concentration 10 µM
T2 construct: purchased KINOMEscan
Description: as §1

panel of 442 kinases [3] = molecular target: T3, panel of 442 kinases (Homo sapiens, UniProt Q96BR1); conditions: kinase SGK3; compound concentration 10 µM
T3 construct: purchased KINOMEscan
T3 sequence (Q96BR1 1-496): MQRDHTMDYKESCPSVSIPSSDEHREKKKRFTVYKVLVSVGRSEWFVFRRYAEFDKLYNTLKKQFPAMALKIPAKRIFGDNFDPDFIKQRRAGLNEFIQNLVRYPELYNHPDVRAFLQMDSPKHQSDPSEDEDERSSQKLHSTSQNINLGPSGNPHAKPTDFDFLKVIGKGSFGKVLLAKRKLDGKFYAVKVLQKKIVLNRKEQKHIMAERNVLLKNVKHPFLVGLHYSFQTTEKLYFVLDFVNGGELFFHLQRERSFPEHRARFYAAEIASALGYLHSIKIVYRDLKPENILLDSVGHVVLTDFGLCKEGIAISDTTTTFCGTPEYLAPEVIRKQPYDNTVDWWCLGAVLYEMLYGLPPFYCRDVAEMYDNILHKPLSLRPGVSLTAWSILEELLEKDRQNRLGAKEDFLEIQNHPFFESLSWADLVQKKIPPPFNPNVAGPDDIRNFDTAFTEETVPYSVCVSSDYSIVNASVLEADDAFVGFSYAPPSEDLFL
Description: as §1

T2 sequence (Q13705 19-512): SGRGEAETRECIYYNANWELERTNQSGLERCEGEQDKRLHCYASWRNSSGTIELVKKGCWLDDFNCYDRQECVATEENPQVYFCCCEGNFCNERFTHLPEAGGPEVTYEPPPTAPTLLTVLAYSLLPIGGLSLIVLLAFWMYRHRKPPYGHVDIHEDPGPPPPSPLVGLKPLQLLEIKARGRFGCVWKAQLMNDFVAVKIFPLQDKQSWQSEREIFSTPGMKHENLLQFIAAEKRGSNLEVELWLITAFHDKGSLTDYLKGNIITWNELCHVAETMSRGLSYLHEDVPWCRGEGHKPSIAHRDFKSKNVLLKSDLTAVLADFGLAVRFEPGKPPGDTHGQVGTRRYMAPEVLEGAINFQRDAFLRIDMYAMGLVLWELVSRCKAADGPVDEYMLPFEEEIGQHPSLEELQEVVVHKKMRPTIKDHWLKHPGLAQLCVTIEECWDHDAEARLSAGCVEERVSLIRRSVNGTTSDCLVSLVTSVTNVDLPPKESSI

| SMILES | KINOMEscan: ABL1(Y253F)-phosphorylated (panel of 442 kinases [1]) | KINOMEscan: ACVR2B (panel of 442 kinases [2]) | % Ctrl, SGK3 (panel of 442 kinases [3]) [% Ctrl] |
| --- | --- | --- | --- |
| COc1cc(C(=O)N2CCC(N3CCN(C)CC3)CC2)ccc1Nc1ncc2c(n1)N(C1CCCC1)c1ccccc1C(=O)N2C [Compound 25, 11-cyclopentyl-2-((2-methoxy-4-(4-(4-methylpiperazin-1-yl)piperidine-1-carbonyl)phenyl)amino)-5-methyl-5H-benzo[e]pyrimido[5,4-b][1,4]diazepin-6(11H)-one] | 60 | 91 | 100 |
| CCOc1cc(C(=O)N2CCC(N3CCN(C)CC3)CC2)ccc1Nc1ncc2c(n1)N(C1CCCC1)c1ccccc1C(=O)N2C [Compound 26] | 100 | 100 | 83 |
| COc1cc(C(=O)N2CCC(N3CCN(C)CC3)CC2)ccc1Nc1ncc2c(n1)N1CCc3cccc(c31)C(=O)N2C [Compound 24] | – | – | 100 |
| COc1cc(C(=O)N2CCC(N3CCN(C)CC3)CC2)ccc1Nc1ncc2c(n1)N(C)c1ccccc1C(=O)N2C [15 (LRRK2-IN-1)] | 89 | 100 | 95 |
